From patent publication US5093339A, “Pyrano[f]quinoline derivatives and pharmaceutical compositions containing the same” (Kodama Kabushiki Kaisha, priority 1988, dated 1992) come the findings set out here.

As usually defined, the LD50 is the dose at which mortality reaches 50%.

Where two headings read alike, the source gives them in different places. Some results are limits rather than exact numbers.

The test system of data set [1] is platelet plasma (platelet-rich plasma of rabbit). Kind of data set: Platelet aggregation inhibitory action (Test Example 1), rabbit platelet plasma, aggregation by ADP, PAF, AA or collagen. The data set is classed as cell-based. As to the method:
For evaluating the platelet aggregation inhibitory action of the present compounds, platelet plasma containing 5×10^5 of platelets in 1 μl of plasma was prepared by appropriately mixing platelet-rich plasma (PRP) of rabbit with platelet-poor plasma (PPP). By using the platelet plasma, the present compounds were measured on 50% inhibitory efficacy (IC 50) against each of platelet aggregation accelerators, 10 μM of adenosine diphosphate (ADP), 0.01 μg/ml of platelet activation factor (PAF), 300 μM of arachidonic acid (AA) and 30 μg/ml of collagen.

A further data set relates to blood pressure. Kind of data set: Blood pressure-reducing action (Test Example 2). The conditions noted are these: dogs, i.v., dissolved in dimethylsulfoxide; for ED20: Canis lupus familiaris, iv, read-out: ED20, dose effective to reduce the blood pressure by 20%. The data set is classed as in vivo, dog. As to the method:
In order to evaluate the blood pressure-reducing action of the present compounds, each of the compounds was dissolved in dimethylsulfoxide and administered intravenously to dogs. After administration, a dose of the compound effective to reduce the blood pressure by 20% (ED20 :mg/Kg) was measured.

For another data set, the system named is carotid blood-flow. Kind of data set: Blood-flow increasing action (Test Example 3), carotid. It counts as in vivo, dog. The conditions noted are these: Canis lupus familiaris, iv; dogs, i.v., dissolved in dimethylsulfoxide; read-out: Carotid blood-flow increasing action (ED30), dose required to increase the blood-flow in the carotid by 30%. As to the method: In order to evaluate the blood-flow increasing action of the present compounds, each of the compounds was dissolved in dimethylsulfoxide and administered intravenously to dogs. After administration, a dose required to increase the blood-flow in the carotid by 30% was determined.

Data set [2] in a line: Acute toxicity test (Test Example 4). The conditions noted are these: in vivo; oral administration to mouse, suspended in carboxymethyl cellulose; read-out: LD50, 50% lethal dose. As to the method: Each of the present compounds suspended in a carboxymethyl cellulose was administered orally to a mouse and a 50% lethal dose (LD50) was measured. There was not observed any dead mouse even with the administration as high as 2,000 mg/Kg.

Setting [3] is: Oryctolagus cuniculus, 0.01 μg/ml platelet activation factor (PAF), read-out: 50% inhibitory efficacy (IC 50), PAF, Coagulant (ID50).
Setting [4] is: Oryctolagus cuniculus, 10 μM adenosine diphosphate (ADP), read-out: 50% inhibitory efficacy (IC 50), ADP, Coagulant (ID50).
Setting [5] is: Oryctolagus cuniculus, 30 μg/ml collagen, read-out: 50% inhibitory efficacy (IC 50), Collagen, Coagulant (ID50).
Where [6] appears, read: Oryctolagus cuniculus, 300 μM arachidonic acid (AA), read-out: 50% inhibitory efficacy (IC 50), AA, Coagulant (ID50).

As for “3,3-dimethyl-1-hydroxy-3H-pyrano [3,2-f]quinoline-8(7H)-one [Preparation Example 9]”, the IC50 in data set [1] (0.01 μg/ml platelet activation factor (PAF), read-out: 50% inhibitory efficacy (IC 50), PAF, Coagulant (ID50)) stood at 45 µM; in data set [1] (10 μM adenosine diphosphate (ADP), read-out: 50% inhibitory efficacy (IC 50), ADP, Coagulant (ID50)), 30 µM; in data set [1] (30 μg/ml collagen, read-out: 50% inhibitory efficacy (IC 50), Collagen, Coagulant (ID50)) it was 30 µM; in data set [1] (300 μM arachidonic acid (AA), read-out: 50% inhibitory efficacy (IC 50), AA, Coagulant (ID50)), 21 µM. The “ED20, dose effective to reduce the blood pressure by 20%” value with blood pressure came to 1.5 mg/kg.
As for `CC1CCc2c(ccc3[nH]c(=O)ccc23)O1` (stereo not shown) [Preparation Example 1, 3-methyl-1,2-dihydro-3H-pyrano[3,2-f]quinoline-8(7H)-one], the IC50 in data set [1] (setting [3]) worked out at 8 µM; in data set [1] (setting [4]), 5 µM; in data set [1] (setting [5]) it was 5 µM; in data set [1] (setting [6]) it was 3 µM. For the same compound, the ED20 with blood pressure worked out at 1.2 mg/kg.
For `CC1(C)CCc2c(ccc3[nH]c(=O)ccc23)O1` [Preparation Example 2, 3,3-dimethyl-1,2-dihydro-3H-pyrano[3,2-f]quinoline-8(7H)-one], the IC50 worked out at 6 µM in data set [1] (setting [3]), 5 µM in data set [1] (setting [4]), 7 µM in data set [1] (setting [5]) and 5 µM in data set [1] (setting [6]). Further, the ED20 with blood pressure was found to be 1.2 mg/kg. Further, the ED30 with carotid blood-flow was determined as 0.009 mg/kg.
In the case of `CC1(C)CCc2c(ccc3c2CCC(=O)N3)O1` [Preparation Example 3, 3,3-dimethyl-1,2,9,10-tetrahydro-3H-pyrano [3,2-f]quinoline-8(7H)-one], the IC50 in data set [1] (setting [3]) stood at 22 µM; in data set [1] (setting [4]) it was 20 µM; in data set [1] (setting [5]), 21 µM; in data set [1] (setting [6]), 16 µM. Besides, the ED20 in the data set on blood pressure was determined as 0.4 mg/kg. Further, the ED30 with carotid blood-flow was found to be 0.03 mg/kg.
As to `O=c1ccc2c3c(ccc2[nH]1)OCC=C3` [Preparation Example 4, 3,3-dihydro-3H-pyrano[3,2-f]quinoline-8(7H)-one], the IC50 was 25 µM in data set [1] (setting [3]), 30 µM in data set [1] (setting [4]), 20 µM in data set [1] (setting [5]) and 18 µM in data set [1] (setting [6]). Moreover, the ED20 with blood pressure was determined as 0.5 mg/kg. Also, the ED30 in the data set with carotid blood-flow was found to be 0.066 mg/kg.
Take `O=c1ccc2c3c(ccc2[nH]1)OCCC3` [Preparation Example 5, 1,2,3,3-tetrahydro-3H-pyrano-[3,2-f]quinoline-8(7H)-one]: the IC50 in data set [1] (setting [3]) was 8 µM; in data set [1] (setting [4]), 3 µM; in data set [1] (setting [5]) it was 6 µM; in data set [1] (setting [6]), 4 µM. In addition, in the data set with blood pressure, the ED20 is 1.6 mg/kg. Besides, the ED30 with carotid blood-flow is 0.0094 mg/kg. Besides, the LD50 in data set [2] was at least 2000 mg/kg.
Consider `O=c1ccc2c3c(ccc2[nH]1)OCC(O)C3` (stereo not shown) [Preparation Example 6, 2-hydroxy-1,2,3,3-tetrahydro-3H-pyrano [3,2-f]quinoline-8(7H)-one], for which the IC50 stood at 47 µM in data set [1] (setting [3]), 30 µM in data set [1] (setting [4]), 25 µM in data set [1] (setting [5]) and 21 µM in data set [1] (setting [6]). In the data set with blood pressure, the ED20 was 1.5 mg/kg. Moreover, the ED30 with carotid blood-flow was 0.19 mg/kg. For the same compound, the LD50 in data set [2] is at least 2000 mg/kg.
As to `CC1(C)Oc2ccc3[nH]c(=O)ccc3c2CC1O` (stereo not shown) [Preparation Example 7, 3,3-dimethyl-1,2-hydroxy-1,2-dihydro-3 H-pyrano[3,2-f]quinoline-8(7H)-one], the IC50 in data set [1] (setting [3]) is 21 µM; in data set [1] (setting [4]) it was 20 µM; in data set [1] (setting [5]), 13 µM; in data set [1] (setting [6]), 13 µM. The ED20 in the data set with blood pressure was determined as 1.6 mg/kg.
Take `O=c1ccc2c3c(ccc2[nH]1)OCCC3O` (stereo not shown) [Preparation Example 8, 1-hydroxy-1,2,3,3-tetrahydro-3H-pyrano[3,2-f]quinoline-8(7H)-one]: the IC50 amounted to 25 µM in data set [1] (setting [3]), 20 µM in data set [1] (setting [4]), 18 µM in data set [1] (setting [5]) and 18 µM in data set [1] (setting [6]). Moreover, the ED20 in the data set on blood pressure is 1.8 mg/kg.
